One data set has as its system endogenous mouse TDP-43. As to the kind of experiment: Western blot of TDP-43 after siRNA transfection of BV-2 cells. The format is cell-based. To be noted: vs scrambled siRNA. How it is done:
(§1) If correct that TDP-43 acts as a co-activator of p65, then reducing the levels of TDP-43 should attenuate p65 activation. To reduce the expression levels of TDP-43, microglial BV-2 cells were transfected with either TDP-43 siRNA or scrambled siRNA together with 4κB^wt-luc vectors. 72 hrs after transfection some of the cells were either stimulated with LPS (100 ng/ml) or mock stimulated for 12 hrs. […] To examine the effect of reducing TDP-43 levels on NF-κB activation, BV-2 cells were transfected with pCMV-p65 and 4κB^wt-luc vectors. TDP-43 siRNA decreased activation of NF-κB reporter gene in transfected cells. The decrease in NF-κB activation was about 3-fold for 5 ng pCMV-p65 (n=4, p<0.01) and about 2.5-fold for 10 and 20 ng pCMV-p65 (n=4, p<0.05) and 2-fold for 50 ng pCMV-p65 (n=4, p<0.05) as compared to scrambled siRNA transfected cells (FIG. 5B). To examine the physiological significance of TDP-43 inhibition by siRNA, we transfected BV-2 cells with ICAM1-luc vector together with TDP-43 siRNA or scrambled siRNA. 72 hrs after transfection, cells were stimulated with varying concentrations of TNF-α. […] We also tested the effect of TDP-43 siRNA transfected in bone-marrow derived macrophages (BMMs) from normal mice. We compared the level of innate immunity activation when stimulated with LPS.
To selectively prevent TDP-43 expression, we employed the RNA interference technology. […]
Background: In western blotting, separated proteins are transferred to a membrane and probed.

Data set [1] has as its system ICAM-1 luciferase activity. As to the kind of experiment: ICAM1-luc luciferase assay in TNF-α stimulated BV-2 cells. The format is cell-based, mouse. To be noted: vs scrambled siRNA. How it is done: as §1
(§2) BV2 cells were harvested in 120 μl of cell lysis buffer (Promega, Madison, Wis., USA), and an ensuing 1-min centrifugation step (20,000×g) yielded a luciferase-containing supernatant. In both cases aliquots of 20-μl supernatant were tested for luciferase activity (luciferase assay kit, Promega) and for β-galactosidase activity (β-galactosidase assay kit, Promega) to adjust for transfection efficiency.
To selectively prevent TDP-43 expression, we employed the RNA interference technology. A double-stranded RNA (siRNA) was employed to degrade TDP-43 mRNA and thus to limit the available protein. The siRNA experiments were designed and conducted as described earlier^26. […]

For data set [2], the system named is bone-marrow derived macrophages (BMMs). In words: Real-time RT-PCR of innate immunity genes in LPS stimulated bone-marrow derived macrophages. The format is cell-based, mouse. Particulars: vs scrambled siRNA. The protocol:
as §1
Real-time RT-PCR was performed with a LightCycler 480 (Roche Diagnostics) sequence detection system using LightCycler SYBR Green I at the Quebec genomics Centre, Quebec. Total RNA was extracted from cell culture experiments using Trizol reagent (Invitrogen). Total RNA was treated with DNase (Qiagen, Valencia, Calif., USA) to get rid of genomic DNA contaminations. Total RNA was the quantified using Nanodrop and its purity verified by Bioanalyzer 2100 (Agilent Technologies, Santa Clara, Calif., USA). Gene-specific primers were constructed using the GeneTools (Biotools Inc.) software. 3 genes Atp5, Hprt1 and GAPDH were used as internal control genes. The primers used for the analysis of genes are given in S-Table 2 (Swamp et al. J Exp Med 2011, 208, 2429-2447).
(§3) To selectively prevent TDP-43 expression, we employed the RNA interference technology. A double-stranded RNA (siRNA) was employed to degrade TDP-43 mRNA and thus to limit the available protein. The siRNA experiments were designed and conducted as described earlier^26. The siRNAs directed against the murine TDP-43 mRNA (NM_145556.4) consisted of sequences with symmetrical 3′-UU overhangs using siRNA Target Finder (Ambion, Tex., USA). […] To account for the non-sequence-specific effects, scrambled siRNA was used. The sequence of scrambled siRNA is as follows: 5′-[…]-3′ (SEQ ID NO:19) and 5′-[…]-3′ (SEQ ID NO:20). TDP-43 siRNAs or the scrambled siRNAs were suspended in diethyl […] water to yield desired concentration. For in vitro transfection, cells were plated in 24-well plates and transfected with 0.6 μmol/L siRNAs with 2 μL Lipofectamine 2000 (Invitrogen). The cells were then kept for 72 h in OptiMEM medium (Gibco).
In general terms: In qPCR the cycle at which signal appears reflects the starting amount.

Another data set concerns NF-κB. In words: 4κB^wt-luc NF-κB reporter gene assay in BV-2 cells. The format is cell-based, mouse. The protocol: as §1, §2, §3

Results on one substance are retold here after patent US10060933B2, “Methods for diagnosis and treatment of amyotrophic lateral sclerosis based on an increased level of interaction between TDP-43 polypeptide and NF-KB P65 polypeptide” (UNIVERSITE LAVAL, priority 2011, dated 2018).

On to “TDP-43 siRNA: double-stranded siRNA against murine TDP-43 mRNA: 5′-AGGAAUCAGCGUGCAUAUAUU-3′ (SEQ ID NO:17), 5′-UAUAUGCACGCUGAUUCCUUU-3′ (SEQ ID NO:18) (listed as RNA, chemistry not given here)”, for which the “endogenous mouse TDP-43 levels (western blot)” value in the data set on endogenous mouse TDP-43 is “reduced the endogenous mouse TDP-43 levels significantly”. The “decrease in ICAM-1 luciferase activity” value in data set [1] (0.5 ng/ml TNF-α) stood at 2 fold. Besides, the “decrease in ICAM-1 luciferase activity” value in data set [1] (1.0 ng/ml TNF-α) is recorded as 2.5 fold. For the same substance, the “decrease in ICAM-1 luciferase activity” value in data set [1] (1.5 ng/ml TNF-α) was 2 fold. In data set [2], the “reduced levels of Cox-2 mRNA” value is 2 fold, the “reduced levels of IL-1β mRNA” value is 2 fold, the “reduced levels of IL-6 mRNA” value is 2.5 fold and the “reduced levels of IP-10 mRNA” value is reported as 2 fold. Besides, in data set [2], the “reduced levels of TLR2 mRNA” value is given as 1.5 fold, the “reduced levels of TNF-α mRNA” value was determined as 3 fold and the “reduced levels of p65 (RELA) mRNA” value was determined as 3 fold. Besides, in the data set with NF-κB (5 ng pCMV-p65, vs scrambled siRNA), the “decrease in NF-κB activation (4κB^wt-luc reporter)” value (“decrease in NF-κB activation” below) is on record as “about 3 fold”. Also, the “decrease in NF-κB activation” value with NF-κB (10 ng pCMV-p65, vs scrambled siRNA) is “about 2.5 fold”. In addition, in the data set on NF-κB (20 ng pCMV-p65, vs scrambled siRNA), the “decrease in NF-κB activation” value was “about 2.5 fold”. For the same substance, the “decrease in NF-κB activation” value in the data set on NF-κB (50 ng pCMV-p65, vs scrambled siRNA) came out at 2 fold.
